In publication PMC9189845, “Structure–Activity Relationships of 8-Hydroxyquinoline-Derived Mannich Bases with Tertiary Amines Targeting Multidrug-Resistant Cancer” (Journal of Medicinal Chemistry, 2022):
Like-named read-outs stand apart in the source and are kept apart here.

Assays:
A431 cells = assay: PrestoBlue viability assay, A431 cells; details: Homo sapiens
MES-SA cells = assay: PrestoBlue viability assay, MES-SA cells
A431-B1 cells = assay: PrestoBlue viability assay, A431-B1 (A431-ABCB1) cells
MES-SA/Dx5 cells = assay: PrestoBlue viability assay, MES-SA/Dx5 cells (MDR, P-gp positive); details: for SR_TQ: selectivity ratio MES-SA vs MES-SA/Dx5, with TQ; for SR: selectivity ratio MES-SA vs MES-SA/Dx5, without TQ; for SR (MES-SA_TQ / Dx5_TQ) (values in parentheses): fraction of IC50 in P-gp negative vs positive cells, presence of 1 μM TQ
[1] = A-431, 72 h, read-out: IC50 / µM A431, 72 h incubation
[2] = A-431, read-out: pIC50 A431, SARM figure (converted)
[3] = Homo sapiens, MES-SA, 72 h, read-out: IC50 / μM MES-SA, absence of TQ, 72 h incubation
[4] = Homo sapiens, MES-SA, read-out: IC50 / μM MES-SA (values in parentheses), presence of 1 μM P-gp inhibitor tariquidar (TQ)
[5] = Homo sapiens, MES-SA, read-out: pIC50 MES-SA_TQ, presence of 1 μM TQ (converted), SARM figure
[6] = Homo sapiens, MES-SA, read-out: pIC50 value MES-SA+TQ, MES-SA cells, with TQ (converted)
[7] = Homo sapiens, MES-SA, read-out: pIC50 value MES-SA, MES-SA cells, without TQ (converted)
[8] = 72 h, read-out: IC50 / µM A431-B1, 72 h incubation
[9] = read-out: pIC50 A431-B1, SARM figure (converted)
[10] = Homo sapiens, MES-SA/Dx5, 72 h, read-out: IC50 / μM MES-SA/Dx5, absence of TQ, 72 h incubation
[11] = Homo sapiens, MES-SA/Dx5, read-out: IC50 / μM MES-SA/Dx5 (values in parentheses), presence of 1 μM P-gp inhibitor tariquidar (TQ)
[12] = Homo sapiens, MES-SA/Dx5, read-out: pIC50 value MES-SA/Dx5, MES-SA/Dx5 cells, without TQ (converted)
[13] = Homo sapiens, MES-SA/Dx5, read-out: pIC50 value MES-SA/Dx5 + TQ, MES-SA/Dx5 cells, with TQ (converted)

Row | SMILES | IC50 (A431 cells; [1]) | IC50 (A431 cells; [2]) | IC50 (MES-SA cells; [3]) | IC50 (MES-SA cells; [4]) | IC50 (MES-SA cells; [6]) | IC50 (MES-SA cells; [7]) | IC50 (A431-B1 cells; [8]) | IC50 (A431-B1 cells; [9]) | IC50 (MES-SA/Dx5 cells; [10]) | IC50 (MES-SA/Dx5 cells; [11]) | IC50 (MES-SA/Dx5 cells; [12]) | SR_TQ (MES-SA/Dx5 cells) | SR (MES-SA/Dx5 cells) | IC50 (MES-SA/Dx5 cells; [13]) | further results
1 | Cc1ccccc1N1CCN(Cc2ccc(O)c3ncccc23)CC1 [Compound 58] | 23.3 µM | 23.4 µM | 5.84 ± 1.02 µM | 5.78 ± 0.49 µM | 5.75 µM | 5.75 µM | 31.2 µM | 30.9 µM | 3.01 ± 0.58 µM | 3.02 ± 0.01 µM | 2.95 µM | 1.91 | 1.94 | – | IC50 (MES-SA cells; Homo sapiens, MES-SA, read-out: pIC50 MES-SA, absence of TQ (converted), SARM figure): 5.75 µM; IC50 (MES-SA cells; [5]): 5.75 µM
2 | CCCOCc1cc(CN2CCCCC2)c(O)c2ncccc12 [Compound 23] | 6.72 ± 0.57 µM | 6.76 µM | 3.72 ± 0.25 µM | 3.55 ± 0.08 µM | 3.55 µM | 3.72 µM | 1.53 ± 0.55 µM | 1.45 µM | 0.34 ± 0.02 µM | 2.4 ± 0.04 µM | 0.339 µM | 1.48 | 10.97 | 2.4 µM | IC50 (MES-SA cells; [5]): 3.8 µM; IC50 (MES-SA/Dx5 cells; Homo sapiens, MES-SA/Dx5, read-out: pIC50 Dx5_TQ, presence of 1 μM TQ (converted), SARM figure): 2.75 µM
3 | CC1CCN(Cc2cc(Cl)c3cccnc3c2O)CC1 [Compound 25] | 8.93 ± 1.44 µM | 8.71 µM | 2.7 ± 0.21 µM | 2.88 µM | 2.88 µM | 2.69 µM | 1.46 ± 0.08 µM | 1.45 µM | 0.26 ± 0.04 µM | 1.59 µM | 0.257 µM | 1.82 | 10.37 | 1.58 µM | –
4 | COCc1cc(CN2CCN(C)CC2)c(O)c2ncccc12 [Compound 35] | 77.2 ± 11.6 µM | 75.9 µM | 24.8 ± 3.36 µM | 30.2 ± 0.64 µM | 30.2 µM | 24.5 µM | 26.49 ± 0.12 µM | 26.3 µM | 8.82 ± 1.41 µM | 27.54 ± 0.13 µM | 8.71 µM | 1.1 | 2.81 | – | SR (MES-SA_TQ / Dx5_TQ) (values in parentheses) (MES-SA/Dx5 cells): 1.10
5 | COCc1cc(CN2CCCCC2)c(O)c2ncccc12 [Compound 21] | 22.6 ± 4.32 µM | 22.4 µM | 9.35 ± 0.61 µM | 9.56 ± 0.39 µM | 9.55 µM | 9.33 µM | 3.53 ± 0.14 µM | 3.55 µM | 0.92 ± 0.11 µM | 7.59 ± 0.08 µM | 0.912 µM | 1.26 | 10.19 | 7.59 µM | –
6 | COCc1cc(CN2CCOCC2)c(O)c2ncccc12 [Compound 31] | 34.4 ± 8.42 µM | 33.1 µM | 9.89 ± 1.52 µM | 8.97 ± 1.01 µM | 8.91 µM | 9.77 µM | 12.1 ± 1.47 µM | 12 µM | 5.64 ± 0.45 µM | 7.77 ± 0.31 µM | 5.62 µM | 1.15 | 1.75 | 7.76 µM | –
7 | OCCN(CCO)Cc1cc(Cl)c2cccnc2c1O [Compound 6] | 73.6 ± 0.75 µM | – | 31.2 ± 4.04 µM | 25.3 µM | 25.1 µM | 30.9 µM | 20.5 ± 0.95 µM | – | 5.28 ± 1.28 µM | 15.4 µM | 5.13 µM | 1.64 | 5.91 | – | SR (A431 / A431-B1) (A431-B1 cells; fraction of IC50 in P-gp negative vs positive cells): 3.60; SR (MES-SA_TQ / Dx5_TQ) (values in parentheses) (MES-SA/Dx5 cells): 1.64
8 | Oc1c(C(c2cccs2)N2CCOCC2)cc(Cl)c2cccnc12 (stereo not drawn) [Compound 110] | – | – | 7.97 ± 1.01 µM | – | – | 7.94 µM | – | – | 14 ± 0.42 µM | – | 13.8 µM | – | 0.57 | – | –
9 | Oc1c(C(c2cccnc2)N2CCCC2)ccc2cccnc12 (stereo not drawn) [Compound 85] | – | – | 41 µM | – | – | 40.7 µM | – | 52.5 µM | 23.3 µM | – | 23.4 µM | – | 1.76 | – | –
10 | Oc1c(C(c2cccs2)N2CCCCC2)ccc2cccnc12 (stereo not drawn) [Compound 94] | – | – | 8.88 ± 0.93 µM | – | – | 8.91 µM | – | – | 11.6 ± 0.94 µM | – | 11.5 µM | – | 0.76 | – | –
11 | OCCN1CCN(C(c2ccc(F)cc2)c2ccc3cccnc3c2O)CC1 (racemic) [Compound 120] | – | – | – | – | – | – | – | – | – | – | – | 1.55 | 2.29 | – | pIC50 value MES-SA (MES-SA cells; MES-SA cells, without TQ): 4.18; IC50 (MES-SA cells; read-out: IC50 / μM MES-SA, absence of TQ, 72 h incubation): 66.7 ± 4.56 µM; pIC50 value MES-SA/Dx5 (MES-SA/Dx5 cells; MES-SA/Dx5 cells, without TQ): 4.55; IC50 (MES-SA/Dx5 cells; read-out: IC50 / μM MES-SA/Dx5, absence of TQ, 72 h incubation): 29.1 ± 7.12 µM
12 | CCN1CCN(Cc2cc(OC)ccc2O)CC1 [Compound 74] | – | – | > 100 µM | – | – | – | – | – | > 100 µM | – | – | – | – | – | –
13 | Oc1c(C(c2ccncc2)N2CCOCC2)ccc2cccnc12 (stereo not drawn) [Compound 104] | – | – | 15.2 ± 2.74 µM | – | 21.9 µM | 14.8 µM | – | – | 7.14 ± 1.26 µM | – | 7.08 µM | 1.45 | 2.12 | 15.1 µM | –
